Results published in ChEMBL document CHEMBL3734667 (Bioorg Med Chem, 2015).
Calls of active or inactive are those of the source. No cut-off for these calls is given here.

System: not listed separately
Experiment: Cytotoxicity against human MT4 cells assessed as cell viability after 96 hrs by MTT assay
Assay type: cell-based
Conditions: not given

Structure (SMILES)	CC50 at 96 h [µM]
C#C[C@@]1(O)[C@H](O)[C@@H](CO)O[C@H]1n1ccc(N)nc1=O [2'-ETHYNYL-D-CYTIDINE]	> 100
Oc1ccc(-n2nc3ccccc3n2)cc1	> 100
CC(C)(COc1ccc(-n2nc3ccccc3n2)cc1)C(=O)O	> 100
C[C@@]1(O)[C@H](O)[C@@H](CO)O[C@H]1n1cnc2c(=O)[nH]c(N)nc21 [2'-B-METHYL-GUANOSINE]	> 100

System: not listed separately
Experiment: Cytotoxicity against MDBK cells assessed as cell viability after 48 to 96 hrs by MTT assay
Assay type: cell-based, Bos taurus
Conditions: cattle

Structure (SMILES)	CC50 [µM]
C#C[C@@]1(O)[C@H](O)[C@@H](CO)O[C@H]1n1ccc(N)nc1=O [2'-ETHYNYL-D-CYTIDINE]	> 100
Oc1ccc(-n2nc3ccccc3n2)cc1	≥ 100
CC(C)(COc1ccc(-n2nc3ccccc3n2)cc1)C(=O)O	> 100
C[C@@]1(O)[C@H](O)[C@@H](CO)O[C@H]1n1cnc2c(=O)[nH]c(N)nc21 [2'-B-METHYL-GUANOSINE]	> 100

System: not listed separately
Experiment: Cytotoxicity against BHK cells assessed as cell viability after 48 to 96 hrs by MTT assay
Assay type: cell-based, Mesocricetus auratus
Conditions: hamster

Structure (SMILES)	CC50 [µM]
C#C[C@@]1(O)[C@H](O)[C@@H](CO)O[C@H]1n1ccc(N)nc1=O [2'-ETHYNYL-D-CYTIDINE]	> 100
Oc1ccc(-n2nc3ccccc3n2)cc1	83
CC(C)(COc1ccc(-n2nc3ccccc3n2)cc1)C(=O)O	> 100
C[C@@]1(O)[C@H](O)[C@@H](CO)O[C@H]1n1cnc2c(=O)[nH]c(N)nc21 [2'-B-METHYL-GUANOSINE]	> 60

System: not listed separately
Experiment: Cytotoxicity against african green monkey Vero 76 cells assessed as cell viability after 48 to 96 hrs by crystal violet staining method
Assay type: cell-based
Conditions: chlorocebus sabaeus

Structure (SMILES)	CC50 [µM]
C#C[C@@]1(O)[C@H](O)[C@@H](CO)O[C@H]1n1ccc(N)nc1=O [2'-ETHYNYL-D-CYTIDINE]	> 100
Oc1ccc(-n2nc3ccccc3n2)cc1	90
CC(C)(COc1ccc(-n2nc3ccccc3n2)cc1)C(=O)O	70
C[C@@]1(O)[C@H](O)[C@@H](CO)O[C@H]1n1cnc2c(=O)[nH]c(N)nc21 [2'-B-METHYL-GUANOSINE]	> 100

System: Bovine viral diarrhea virus 1
Experiment: Antiviral activity against BVDV infected in MDBK cells assessed as inhibition of virus-induced cytopathogenicity after 3 to 4 days by MTT assay
Assay type: functional, organism-based
Conditions: Bovine viral diarrhea virus isolates and strains

Structure (SMILES)	EC50 [µM]
Oc1ccc(-n2nc3ccccc3n2)cc1	17
CC(C)(COc1ccc(-n2nc3ccccc3n2)cc1)C(=O)O	44

System: Yellow fever virus
Experiment: Antiviral activity against YFV infected in BHK-21 cells assessed as inhibition of virus-induced cytopathogenicity after 3 to 4 days by MTT assay
Assay type: functional, organism-based
Conditions: not given

Structure (SMILES)	EC50 [µM]
C#C[C@@]1(O)[C@H](O)[C@@H](CO)O[C@H]1n1ccc(N)nc1=O [2'-ETHYNYL-D-CYTIDINE]	> 100
Oc1ccc(-n2nc3ccccc3n2)cc1	≥ 83
CC(C)(COc1ccc(-n2nc3ccccc3n2)cc1)C(=O)O	> 100
C[C@@]1(O)[C@H](O)[C@@H](CO)O[C@H]1n1cnc2c(=O)[nH]c(N)nc21 [2'-B-METHYL-GUANOSINE]	1.5

System: Mammalian orthoreovirus 1
Experiment: Antiviral activity against Reo-1 virus infected in BHK-21 cells assessed as inhibition of virus-induced cytopathogenicity after 3 to 4 days by MTT assay
Assay type: functional, cell-based
Conditions: Mammalian orthoreovirus 1, BHK-21

Structure (SMILES)	EC50 [µM]
C#C[C@@]1(O)[C@H](O)[C@@H](CO)O[C@H]1n1ccc(N)nc1=O [2'-ETHYNYL-D-CYTIDINE]	> 100

System: Coxsackievirus B5
Experiment: Antiviral activity against human CVB5 infected in african green monkey Vero76 cells assessed as inhibition of virus-induced cytopathogenicity after 3 days by plaque reduction assay
Assay type: functional, organism-based
Conditions: Enterovirus B, Vero 76, 72 h

Structure (SMILES)	EC50 [µM]
C#C[C@@]1(O)[C@H](O)[C@@H](CO)O[C@H]1n1ccc(N)nc1=O [2'-ETHYNYL-D-CYTIDINE]	30
Oc1ccc(-n2nc3ccccc3n2)cc1	> 100
CC(C)(COc1ccc(-n2nc3ccccc3n2)cc1)C(=O)O	> 100
C[C@@]1(O)[C@H](O)[C@@H](CO)O[C@H]1n1cnc2c(=O)[nH]c(N)nc21 [2'-B-METHYL-GUANOSINE]	20

System: Human orthopneumovirus
Experiment: Antiviral activity against human RSV infected in african green monkey Vero76 cells assessed as inhibition of virus-induced cytopathogenicity after 5 days by plaque reduction assay
Assay type: functional, organism-based
Conditions: human respiratory syncytial virus, Vero 76, 120 h

Structure (SMILES)	EC50 [µM]
C#C[C@@]1(O)[C@H](O)[C@@H](CO)O[C@H]1n1ccc(N)nc1=O [2'-ETHYNYL-D-CYTIDINE]	> 100
CC(C)(COc1ccc(-n2nc3ccccc3n2)cc1)C(=O)O	25
C[C@@]1(O)[C@H](O)[C@@H](CO)O[C@H]1n1cnc2c(=O)[nH]c(N)nc21 [2'-B-METHYL-GUANOSINE]	> 100

System: Poliovirus 1
Experiment: Antiviral activity against Human poliovirus 1 Sabin infected in african green monkey Vero76 cells assessed as inhibition of virus-induced cytopathogenicity by plaque reduction assay
Assay type: functional, organism-based
Conditions: Enterovirus C, Vero 76

Structure (SMILES)	EC50 [µM]
C#C[C@@]1(O)[C@H](O)[C@@H](CO)O[C@H]1n1ccc(N)nc1=O [2'-ETHYNYL-D-CYTIDINE]	25
Oc1ccc(-n2nc3ccccc3n2)cc1	7
CC(C)(COc1ccc(-n2nc3ccccc3n2)cc1)C(=O)O	> 100
C[C@@]1(O)[C@H](O)[C@@H](CO)O[C@H]1n1cnc2c(=O)[nH]c(N)nc21 [2'-B-METHYL-GUANOSINE]	> 100

System: not listed separately
Experiment: Selectivity index, ratio of CC50 for MDBK cells to EC50 for BVDV
Design: species or system Bovine viral diarrhea virus 1
Conditions: not given

Structure (SMILES)	Ratio CC50/EC50
C#C[C@@]1(O)[C@H](O)[C@@H](CO)O[C@H]1n1ccc(N)nc1=O [2'-ETHYNYL-D-CYTIDINE]	>2.6
Oc1ccc(-n2nc3ccccc3n2)cc1	>5.88
CC(C)(COc1ccc(-n2nc3ccccc3n2)cc1)C(=O)O	>2.27
C[C@@]1(O)[C@H](O)[C@@H](CO)O[C@H]1n1cnc2c(=O)[nH]c(N)nc21 [2'-B-METHYL-GUANOSINE]	>58.8

System: not listed separately
Experiment: Selectivity index, ratio of CC50 for BHK-21 cells to EC50 for YFV
Design: species or system Yellow fever virus
Conditions: not given

Structure (SMILES)	Ratio CC50/EC50
C[C@@]1(O)[C@H](O)[C@@H](CO)O[C@H]1n1cnc2c(=O)[nH]c(N)nc21 [2'-B-METHYL-GUANOSINE]	>66.7

System: not listed separately
Experiment: Selectivity index, ratio of CC50 for african green monkey Vero76 cells to EC50 for human CVB5
Design: species or system Coxsackievirus B5, Vero 76
Conditions: not given

Structure (SMILES)	Ratio CC50/EC50
C#C[C@@]1(O)[C@H](O)[C@@H](CO)O[C@H]1n1ccc(N)nc1=O [2'-ETHYNYL-D-CYTIDINE]	>3.3
C[C@@]1(O)[C@H](O)[C@@H](CO)O[C@H]1n1cnc2c(=O)[nH]c(N)nc21 [2'-B-METHYL-GUANOSINE]	>5

System: not listed separately
Experiment: Selectivity index, ratio of CC50 for african green monkey Vero76 cells to EC50 for human RSV
Design: species or system human respiratory syncytial virus, Vero 76
Conditions: not given

Structure (SMILES)	Ratio CC50/EC50
CC(C)(COc1ccc(-n2nc3ccccc3n2)cc1)C(=O)O	2.8

System: not listed separately
Experiment: Selectivity index, ratio of CC50 for african green monkey Vero76 cells to EC50 for human Sb-1
Design: species or system Human poliovirus 1 strain Sabin, Vero 76
Conditions: not given

Structure (SMILES)	Ratio CC50/EC50
C#C[C@@]1(O)[C@H](O)[C@@H](CO)O[C@H]1n1ccc(N)nc1=O [2'-ETHYNYL-D-CYTIDINE]	>4
Oc1ccc(-n2nc3ccccc3n2)cc1	12.86

System: Human immunodeficiency virus 1
Experiment: Antiviral activity against HIV-1 infected in MT4 cells assessed as inhibition of virus-induced cytopathogenicity after 4 days by MTT assay
Assay type: functional, organism-based
Conditions: Human immunodeficiency virus 1, MT4, 96 h

Structure (SMILES)	EC50 [µM]
Oc1ccc(-n2nc3ccccc3n2)cc1	> 100
CC(C)(COc1ccc(-n2nc3ccccc3n2)cc1)C(=O)O	> 100

System: dengue virus type 2
Experiment: Antiviral activity against DENV-2 infected in BHK-21 cells assessed as inhibition of virus-induced cytopathogenicity after 3 to 4 days by MTT assay
Assay type: functional, organism-based
Conditions: not given

Structure (SMILES)	EC50 [µM]
C[C@@]1(O)[C@H](O)[C@@H](CO)O[C@H]1n1cnc2c(=O)[nH]c(N)nc21 [2'-B-METHYL-GUANOSINE]	1.2

System: West Nile virus
Experiment: Antiviral activity against WNV infected in BHK-21 cells assessed as inhibition of virus-induced cytopathogenicity after 3 to 4 days by MTT assay
Assay type: functional, organism-based
Conditions: not given

Structure (SMILES)	EC50 [µM]
C[C@@]1(O)[C@H](O)[C@@H](CO)O[C@H]1n1cnc2c(=O)[nH]c(N)nc21 [2'-B-METHYL-GUANOSINE]	0.7

Molecular target: T1, Peroxisome proliferator-activated receptor alpha (Homo sapiens) (UniProt Q07869)
T1 sequence (whole entry): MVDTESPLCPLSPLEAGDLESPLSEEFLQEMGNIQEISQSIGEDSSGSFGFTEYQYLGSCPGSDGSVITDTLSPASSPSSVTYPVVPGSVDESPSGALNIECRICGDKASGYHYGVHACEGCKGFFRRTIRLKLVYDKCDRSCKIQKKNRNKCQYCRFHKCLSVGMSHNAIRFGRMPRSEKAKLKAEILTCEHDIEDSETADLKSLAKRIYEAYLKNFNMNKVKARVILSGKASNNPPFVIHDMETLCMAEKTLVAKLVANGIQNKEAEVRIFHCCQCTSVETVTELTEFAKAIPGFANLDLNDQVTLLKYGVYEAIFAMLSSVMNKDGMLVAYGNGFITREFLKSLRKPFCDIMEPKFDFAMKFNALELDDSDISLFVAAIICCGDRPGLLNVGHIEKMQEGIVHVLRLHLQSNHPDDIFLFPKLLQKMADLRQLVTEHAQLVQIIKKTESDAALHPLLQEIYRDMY
Experiment: Agonist activity at human PPAR alpha in human HepG2 cells after 20 hrs by luciferase reporter assay
Assay type: cell-based
Conditions: not given

Structure (SMILES)	Activity
CC(C)(COc1ccc(-n2nc3ccccc3n2)cc1)C(=O)O	inactive

Molecular target: T2, Peroxisome proliferator-activated receptor gamma (Homo sapiens) (UniProt P37231)
T2 sequence (whole entry): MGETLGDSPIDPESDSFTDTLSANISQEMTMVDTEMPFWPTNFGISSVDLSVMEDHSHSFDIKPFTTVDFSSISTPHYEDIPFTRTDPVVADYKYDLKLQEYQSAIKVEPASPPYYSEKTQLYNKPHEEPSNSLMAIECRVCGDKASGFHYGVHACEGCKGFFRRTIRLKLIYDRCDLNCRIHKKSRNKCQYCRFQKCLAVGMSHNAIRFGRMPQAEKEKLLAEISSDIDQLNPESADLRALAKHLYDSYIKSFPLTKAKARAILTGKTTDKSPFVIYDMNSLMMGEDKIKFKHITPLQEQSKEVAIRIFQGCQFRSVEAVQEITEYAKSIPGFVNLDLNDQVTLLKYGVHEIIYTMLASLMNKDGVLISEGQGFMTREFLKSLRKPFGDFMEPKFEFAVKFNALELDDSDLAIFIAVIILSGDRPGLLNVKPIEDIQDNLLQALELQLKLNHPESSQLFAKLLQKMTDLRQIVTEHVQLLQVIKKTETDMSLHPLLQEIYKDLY
Experiment: Agonist activity at human PPAR gamma in human HepG2 cells after 20 hrs by luciferase reporter assay
Assay type: cell-based
Conditions: not given

Structure (SMILES)	Activity
CC(C)(COc1ccc(-n2nc3ccccc3n2)cc1)C(=O)O	inactive

System: Human alphaherpesvirus 1
Experiment: Antiviral activity against HSV1
Assay type: functional, organism-based
Conditions: not given

Structure (SMILES)	EC50 [µM]
C#C[C@@]1(O)[C@H](O)[C@@H](CO)O[C@H]1n1ccc(N)nc1=O [2'-ETHYNYL-D-CYTIDINE]	> 100
C[C@@]1(O)[C@H](O)[C@@H](CO)O[C@H]1n1cnc2c(=O)[nH]c(N)nc21 [2'-B-METHYL-GUANOSINE]	> 100

System: Vesicular stomatitis virus
Experiment: Antiviral activity against VSV
Assay type: functional, organism-based
Conditions: not given

Structure (SMILES)	EC50 [µM]
C#C[C@@]1(O)[C@H](O)[C@@H](CO)O[C@H]1n1ccc(N)nc1=O [2'-ETHYNYL-D-CYTIDINE]	> 100
Oc1ccc(-n2nc3ccccc3n2)cc1	> 100
CC(C)(COc1ccc(-n2nc3ccccc3n2)cc1)C(=O)O	> 100
C[C@@]1(O)[C@H](O)[C@@H](CO)O[C@H]1n1cnc2c(=O)[nH]c(N)nc21 [2'-B-METHYL-GUANOSINE]	> 100

System: Vaccinia virus
Experiment: Antiviral activity against Vaccinia virus
Assay type: functional, organism-based
Conditions: Orthopoxvirus vaccinia

Structure (SMILES)	EC50 [µM]
C#C[C@@]1(O)[C@H](O)[C@@H](CO)O[C@H]1n1ccc(N)nc1=O [2'-ETHYNYL-D-CYTIDINE]	> 100
Oc1ccc(-n2nc3ccccc3n2)cc1	> 100
CC(C)(COc1ccc(-n2nc3ccccc3n2)cc1)C(=O)O	> 100
C[C@@]1(O)[C@H](O)[C@@H](CO)O[C@H]1n1cnc2c(=O)[nH]c(N)nc21 [2'-B-METHYL-GUANOSINE]	> 100
